{
  "source": "BindingDB's records for doi:10.1016/s0960-894x(98)00213-3",
  "about": "(Centre De Recherche Pierre Fabre, 1999)",
  "key": {"[1]": {"experiment": "In vitro inhibition of pig liver squalene epoxidase in HepG2 cells"}, "[2]": {"experiment": "In vitro inhibition of dog liver squalene epoxidase in HepG2 cells"}},
  "data": [
    {"smiles": "CCN(C/C=C/C#CC(C)(C)C)Cc1cccc(OCCN(C)S(=O)(=O)c2cccs2)c1", "note": "[Thiophene-2-sulfonic acid [2-(3-{[((E)-6,6-dimethyl-hept-2-en-4-ynyl)-ethyl-amino]-methyl}-phenoxy)-ethyl]-methyl-amide]", "values": [
      {"measurement": "IC50", "setting": "[1]", "result": 0.05, "unit": "µM"},
      {"measurement": "IC50", "setting": "[2]", "result": 0.08, "unit": "µM"}
    ]}
  ]
}
